Experimental data reported in PubChem BioAssay AID1919013 (Molecular Pharmacology Branch, DTP, NCI, 2023).
One block for each compound: values may come before it.

System: LG0703-F498-PDC complex spheroid growth
Assay: Anticancer human tumor LG0703-F498-PDC patient-derived lung adenocarcinoma cell line growth inhibition [AhR]
Conditions: for IC50: curve of first compound; for viability, T/C: stronger effect = lower value
Method in brief: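 Complex tumor spheroids co-cultured with HUVEC and human MSC stroma; AhR antagonists tested in combination with standard-of-care and investigational agents. Top concentration at or near clinical Cmax (else 10 microM), half-log dilutions; growth expressed as percent test/control.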

[1] = second compound 0.1 µM, first compound 0.0316 µM
[2] = second compound 0.1 µM, first compound 0.1 µM
[3] = second compound 0.1 µM, first compound 0.316 µM
[4] = second compound 0.1 µM, first compound 1 µM
[5] = second compound 0.1 µM, first compound 3.16 µM
[6] = second compound 0.1 µM, first compound 10 µM
[7] = second compound 0.316 µM, first compound 0.0316 µM
[8] = second compound 0.316 µM, first compound 0.1 µM
[9] = second compound 0.316 µM, first compound 0.316 µM
[10] = second compound 0.316 µM, first compound 1 µM
[11] = second compound 0.316 µM, first compound 3.16 µM
[12] = second compound 0.316 µM, first compound 10 µM
[13] = second compound 1 µM, first compound 0.0316 µM
[14] = second compound 1 µM, first compound 0.1 µM
[15] = second compound 1 µM, first compound 0.316 µM
[16] = second compound 1 µM, first compound 1 µM
[17] = second compound 1 µM, first compound 3.16 µM
[18] = second compound 1 µM, first compound 10 µM
[19] = second compound 3.16 µM, first compound 0.0316 µM
[20] = second compound 3.16 µM, first compound 0.1 µM
[21] = second compound 3.16 µM, first compound 0.316 µM
[22] = second compound 3.16 µM, first compound 1 µM
[23] = second compound 3.16 µM, first compound 3.16 µM
[24] = second compound 3.16 µM, first compound 10 µM
[25] = second compound 10 µM, first compound 0.0316 µM
[26] = second compound 10 µM, first compound 0.1 µM
[27] = second compound 10 µM, first compound 0.316 µM
[28] = second compound 10 µM, first compound 1 µM
[29] = second compound 10 µM, first compound 3.16 µM
[30] = second compound 10 µM, first compound 10 µM
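Note: luminescence taken as a proxy for viable cell amount.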
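Throughout, for viability, T/C: percent of DMSO vehicle control where 100% means growth equal to vehicle.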

- IC50 (second compound 0.1 µM): 5.91 µM
- IC50 (second compound 0.316 µM): 5.65 µM
- IC50 (second compound 1 µM): 5.8 µM
- IC50 (second compound 3.16 µM): 5.48 µM
- IC50 (second compound 10 µM): 5.13 µM
Structure (SMILES): CC1(C)CCC(CN2CCN(c3ccc(C(=O)NS(=O)(=O)c4ccc(NCC5CCOCC5)c([N+](=O)[O-])c4)c(Oc4cnc5[nH]ccc5c4)c3)CC2)=C(c2ccc(Cl)cc2)C1 + CC(CO)NC(=O)c1cc(-c2ccc(Cl)cc2)nn(-c2cnn(C)c2)c1=O
- viability, T/C [1]: 92.1%
- viability, T/C [2]: 99.7%
- viability, T/C [3]: 89.5%
- viability, T/C [4]: 85.6%
- viability, T/C [5]: 87.4%
- viability, T/C [6]: 18.4%
- viability, T/C [7]: 106%
- viability, T/C [8]: 108%
- viability, T/C [9]: 86.8%
- viability, T/C [10]: 82.4%
- viability, T/C [11]: 86%
- viability, T/C [12]: 20.5%
- viability, T/C [13]: 85.6%
- viability, T/C [14]: 97.4%
- viability, T/C [15]: 90.3%
- viability, T/C [16]: 92.7%
- viability, T/C [17]: 85.4%
- viability, T/C [18]: 18.2%
- viability, T/C [19]: 82.2%
- viability, T/C [20]: 80.1%
- viability, T/C [21]: 90.1%
- viability, T/C [22]: 90.2%
- viability, T/C [23]: 78.7%
- viability, T/C [24]: 18.3%
- viability, T/C [25]: 75.8%
- viability, T/C [26]: 80.1%
- viability, T/C [27]: 77.2%
- viability, T/C [28]: 78.2%
- viability, T/C [29]: 73.2%
- viability, T/C [30]: 17.9%

- IC50 (second compound 0.1 µM): > 3 µM
- IC50 (second compound 0.316 µM): > 3 µM
- IC50 (second compound 1 µM): > 3 µM
- IC50 (second compound 3.16 µM): > 3 µM
- IC50 (second compound 10 µM): > 3 µM
Structure (SMILES): CCN(c1cc(-c2ccc(CN3CCOCC3)cc2)cc(C(=O)NCc2c(C)cc(C)[nH]c2=O)c1C)C1CCOCC1 + CC(CO)NC(=O)c1cc(-c2ccc(Cl)cc2)nn(-c2cnn(C)c2)c1=O
- viability, T/C (second compound 0.1 µM, first compound 0.00949 µM): 98.2%
- viability, T/C (second compound 0.1 µM, first compound 0.03 µM): 100%
- viability, T/C (second compound 0.1 µM, first compound 0.0949 µM): 93.9%
- viability, T/C (second compound 0.1 µM, first compound 0.3 µM): 96.1%
- viability, T/C (second compound 0.1 µM, first compound 0.949 µM): 95.7%
- viability, T/C (second compound 0.1 µM, first compound 3 µM): 94.6%
- viability, T/C (second compound 0.316 µM, first compound 0.00949 µM): 105%
- viability, T/C (second compound 0.316 µM, first compound 0.03 µM): 112%
- viability, T/C (second compound 0.316 µM, first compound 0.0949 µM): 101%
- viability, T/C (second compound 0.316 µM, first compound 0.3 µM): 92.9%
- viability, T/C (second compound 0.316 µM, first compound 0.949 µM): 114%
- viability, T/C (second compound 0.316 µM, first compound 3 µM): 105%
- viability, T/C (second compound 1 µM, first compound 0.00949 µM): 91.1%
- viability, T/C (second compound 1 µM, first compound 0.03 µM): 95.7%
- viability, T/C (second compound 1 µM, first compound 0.0949 µM): 99%
- viability, T/C (second compound 1 µM, first compound 0.3 µM): 90%
- viability, T/C (second compound 1 µM, first compound 0.949 µM): 92.9%
- viability, T/C (second compound 1 µM, first compound 3 µM): 103%
- viability, T/C (second compound 3.16 µM, first compound 0.00949 µM): 85.1%
- viability, T/C (second compound 3.16 µM, first compound 0.03 µM): 95.3%
- viability, T/C (second compound 3.16 µM, first compound 0.0949 µM): 96.7%
- viability, T/C (second compound 3.16 µM, first compound 0.3 µM): 81.2%
- viability, T/C (second compound 3.16 µM, first compound 0.949 µM): 84.8%
- viability, T/C (second compound 3.16 µM, first compound 3 µM): 102%
- viability, T/C (second compound 10 µM, first compound 0.00949 µM): 86%
- viability, T/C (second compound 10 µM, first compound 0.03 µM): 97.1%
- viability, T/C (second compound 10 µM, first compound 0.0949 µM): 94.2%
- viability, T/C (second compound 10 µM, first compound 0.3 µM): 93.8%
- viability, T/C (second compound 10 µM, first compound 0.949 µM): 78.3%
- viability, T/C (second compound 10 µM, first compound 3 µM): 96.3%

- IC50 (second compound 0.1 µM): > 0.1 µM
- IC50 (second compound 0.316 µM): > 0.1 µM
- IC50 (second compound 1 µM): > 0.1 µM
- IC50 (second compound 3.16 µM): > 0.1 µM
- IC50 (second compound 10 µM): > 0.1 µM
Structure (SMILES): Cn1ncnc1C1c2n[nH]c(=O)c3cc(F)cc(c23)NC1c1ccc(F)cc1 (stereo not given) + CC(CO)NC(=O)c1cc(-c2ccc(Cl)cc2)nn(-c2cnn(C)c2)c1=O
- viability, T/C (second compound 0.1 µM, first compound 0.000316 µM): 89.3%
- viability, T/C (second compound 0.1 µM, first compound 0.001 µM): 86.6%
- viability, T/C (second compound 0.1 µM, first compound 0.00316 µM): 99.1%
- viability, T/C (second compound 0.1 µM, first compound 0.01 µM): 79.5%
- viability, T/C [1]: 90.2%
- viability, T/C [2]: 80.9%
- viability, T/C (second compound 0.316 µM, first compound 0.000316 µM): 79.2%
- viability, T/C (second compound 0.316 µM, first compound 0.001 µM): 95.7%
- viability, T/C (second compound 0.316 µM, first compound 0.00316 µM): 83.3%
- viability, T/C (second compound 0.316 µM, first compound 0.01 µM): 72.6%
- viability, T/C [7]: 83.1%
- viability, T/C [8]: 71.5%
- viability, T/C (second compound 1 µM, first compound 0.000316 µM): 76.7%
- viability, T/C (second compound 1 µM, first compound 0.001 µM): 91.2%
- viability, T/C (second compound 1 µM, first compound 0.00316 µM): 88.7%
- viability, T/C (second compound 1 µM, first compound 0.01 µM): 73.4%
- viability, T/C [13]: 75.1%
- viability, T/C [14]: 74.6%
- viability, T/C (second compound 3.16 µM, first compound 0.000316 µM): 80.8%
- viability, T/C (second compound 3.16 µM, first compound 0.001 µM): 83.7%
- viability, T/C (second compound 3.16 µM, first compound 0.00316 µM): 80.4%
- viability, T/C (second compound 3.16 µM, first compound 0.01 µM): 73.9%
- viability, T/C [19]: 71.8%
- viability, T/C [20]: 70.2%
- viability, T/C (second compound 10 µM, first compound 0.000316 µM): 69.6%
- viability, T/C (second compound 10 µM, first compound 0.001 µM): 74.3%
- viability, T/C (second compound 10 µM, first compound 0.00316 µM): 79.7%
- viability, T/C (second compound 10 µM, first compound 0.01 µM): 73.6%
- viability, T/C [25]: 76.8%
- viability, T/C [26]: 66.8%

- IC50 (second compound 0.1 µM): 3.6 µM
- IC50 (second compound 0.316 µM): 1.47 µM
- IC50 (second compound 1 µM): 0.882 µM
- IC50 (second compound 3.16 µM): 0.617 µM
- IC50 (second compound 10 µM): 0.638 µM
Structure (SMILES): NS(=O)(=O)OCC1CC(n2ccc3c(NC4CCc5ccccc54)ncnc32)CC1O (stereo not given) + CC(CO)NC(=O)c1cc(-c2ccc(Cl)cc2)nn(-c2cnn(C)c2)c1=O
- viability, T/C [1]: 94.1%
- viability, T/C [2]: 99.9%
- viability, T/C [3]: 81.9%
- viability, T/C [4]: 71%
- viability, T/C [5]: 51.7%
- viability, T/C [6]: 38.3%
- viability, T/C [7]: 96.4%
- viability, T/C [8]: 88.9%
- viability, T/C [9]: 78.9%
- viability, T/C [10]: 51.7%
- viability, T/C [11]: 45%
- viability, T/C [12]: 36.2%
- viability, T/C [13]: 89%
- viability, T/C [14]: 76.7%
- viability, T/C [15]: 65.4%
- viability, T/C [16]: 48.6%
- viability, T/C [17]: 36.8%
- viability, T/C [18]: 38.5%
- viability, T/C [19]: 78.4%
- viability, T/C [20]: 73.5%
- viability, T/C [21]: 60.8%
- viability, T/C [22]: 42.5%
- viability, T/C [23]: 34.3%
- viability, T/C [24]: 34.2%
- viability, T/C [25]: 78.5%
- viability, T/C [26]: 72.6%
- viability, T/C [27]: 60.5%
- viability, T/C [28]: 43.4%
- viability, T/C [29]: 34.1%
- viability, T/C [30]: 31.9%
